Measured values reported in PMC11868579 (Nature Communications, 2024).

Tested on: eIF4E-dTAG (FKBP12^F36V-tagged eIF4E)
Assay: Immunoblot of eIF4E-dTAG degradation in H1299 eIF4E-dTAG clones
Type: cell-based, human
Conditions: 6 h at ≈ 2–5x the IC50
Description: Treatment of isolated clones with the heterobifunctional dTAG^V−1 molecule recruits E3 ligase VHL to degrade eIF4E-dTAG. […] Parental H1299 cells and the selected eIF4E-dTAG clones were treated with 0.5 and 1 µM dTAG^V−1 for 6, 8, or 16 h. Vinculin was used as a loading control (n = 3 biological replicates). c Real-time cell growth measurements of the selected eIF4E-dTAG clones treated with 0.5 or 1 µM dTAG^V−1. Cell confluency (%) was monitored every 4 h over 6 days using Incucyte Zoom. Significance was determined using a one-way ANOVA with Tukey multiple comparisons test comparing dTAG^V−1 treatment with the control in each cell line. […] Significant differences between control and treated samples were determined using MSstats. […]
After seeding overnight in 6 well plates (Corning, cat#353046), cells were treated with compounds for the indicated times and concentration, harvested and the cell pellet lysed on ice in cell lysis buffer (Cell Signaling, cat#9803), supplemented with 1x Halt^TM protease inhibitor cocktail (Fisher Scientific, cat#78429) and cOmplete^TM protease inhibitor cocktail (Sigma-Aldrich, cat#11836153001) for 1 hr. Protein was quantified using BCA protein kit (Fisher Scientific, cat#23225). […] Quantitative densitometry analysis of protein bands was performed using Image J v1.53 software.

Q: For `CC[C@H](C(=O)N1CCCC[C@H]1C(=O)O[C@H](CCc1ccc(OC)c(OC)c1)c1ccccc1OCC(=O)NCCCCCCC(=O)N[C@H](C(=O)N1C[C@H](O)C[C@H]1C(=O)N[C@@H](C)c1ccc(-c2scnc2C)cc1)C(C)(C)C)c1cc(OC)c(OC)c(OC)c1` [dTAG^V-1], which “loss of eIF4E-dTAG” value is on record?
A: Its value is “near complete loss of eIF4E-dTAG”.
